# Laboratory results reported in ChEMBL document CHEMBL1777682, “NMR evaluation of interactions between substituted-indole and PDZ1 domain of PSD-95” (Bioorg Med Chem Lett, 2011).
# Activity calls are given as the source filed them. The calls are words filed in the database; no cut-off is given here.
# Target: Disks large homolog 4 (Homo sapiens) (UniProt P78352)
# Test: Binding affinity to recombinant 15N-labelled PSD95-PDZ1 domain expressed in Escherichia coli BL21 assessed as chemical shift perturbation by NMR spectra analysis
# Sequence of Disks large homolog 4 (Homo sapiens) (P78352 whole entry, looked up, the tested form may be a part): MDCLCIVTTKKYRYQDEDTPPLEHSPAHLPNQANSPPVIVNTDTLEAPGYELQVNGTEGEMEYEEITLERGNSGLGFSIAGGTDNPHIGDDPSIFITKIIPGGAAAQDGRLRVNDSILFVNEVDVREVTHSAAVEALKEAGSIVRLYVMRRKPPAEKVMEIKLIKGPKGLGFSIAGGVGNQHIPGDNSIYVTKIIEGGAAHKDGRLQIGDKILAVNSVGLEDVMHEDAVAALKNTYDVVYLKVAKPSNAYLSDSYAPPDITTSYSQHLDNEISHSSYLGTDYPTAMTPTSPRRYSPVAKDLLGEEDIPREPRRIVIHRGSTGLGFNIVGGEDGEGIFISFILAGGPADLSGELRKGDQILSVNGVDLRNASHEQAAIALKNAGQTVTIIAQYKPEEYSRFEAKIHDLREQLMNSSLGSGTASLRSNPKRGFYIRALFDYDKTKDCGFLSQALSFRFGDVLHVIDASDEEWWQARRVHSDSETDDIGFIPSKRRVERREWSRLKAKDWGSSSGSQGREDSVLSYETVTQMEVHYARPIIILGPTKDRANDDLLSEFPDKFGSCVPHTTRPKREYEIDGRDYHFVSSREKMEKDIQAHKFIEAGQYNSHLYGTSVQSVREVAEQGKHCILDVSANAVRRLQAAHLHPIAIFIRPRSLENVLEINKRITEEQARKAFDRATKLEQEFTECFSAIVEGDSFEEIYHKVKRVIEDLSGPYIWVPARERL
row,SMILES,Activity
1,COC(=O)c1cc2[nH]c(C(=O)O)c(C)c2cc1C,inactive
2,Cc1cc2c(C)c(C(=O)O)n(C)c2cc1C(=O)O,inactive
3,Cc1cc2c(C)c(C(=O)O)[nH]c2cc1C(=O)O,Active
4,Cc1c(C(=O)O)[nH]c2ccc(C(=O)O)cc12,Active
5,COC(=O)c1cc2c(C)c(C(=O)O)[nH]c2cc1C,inactive
6,CCOC(=O)c1ccc2[nH]c(C(=O)O)c(C)c2c1,inactive
7,Cc1cc2cc(C(=O)O)[nH]c2cc1C(=O)O,inactive
8,Cc1cc2[nH]c(C(=O)O)c(C)c2cc1C(=O)O,Active
